In paper PMC4976201, “Total synthesis of teixobactin” (Nature Communications, 2016):

Tested on: Gram-positive bacterial pathogens
Assay: Antibacterial activity on Gram-positive bacteria, stated in words
Type: cell-based
Conditions: MIC on various Gram-positive bacteria strains
Source text: Synthetic teixobactin and its analogues were subjected to the assessment of their antimicrobial activities by determining their minimal inhibitory concentration on various Gram-positive bacteria strains including methicillin-susceptible S. aureus strain ATCC29213 and methicillin-resistant S. aureus clinical isolates. […] In this effort, the original stereo-configuration of the amino-acid residue should be thoroughly scrutinized. From our study, it is encouraging to find that Orn-containing teixobactin analogues maintained modest antibacterial activity. Since Orn is readily available as compared with L-allo-End and the synthesis of the Orn-containing cyclic depsipeptide (7–11) gave the best yield among all the analogue syntheses, which is amenable to a large-scale synthesis. Through the above-developed convergent synthetic strategy, various linear hexapeptide (1–6), such as 11, can be readily prepared and ligated to the Orn-containing the cyclic depsi-pentapeptide (7–11) to investigate the contribution of each amino acid in the linear peptide fragment towards the antibacterial activity, which will lead to the optimal structure for the development of teixobactin with improved properties.

| Compound | antibacterial activity compared with natural teixobactin |
| --- | --- |
| CC[C@@H](C)[C@@H](NC(=O)[C@@H](CCC(N)=O)NC(=O)[C@H](CO)NC(=O)[C@@H](NC(=O)[C@@H](Cc1ccccc1)NC)[C@@H](C)CC)C(=O)N[C@H](C(=O)N[C@@H](CO)C(=O)N[C@H]1C(=O)N[C@@H](C)C(=O)N[C@@H](CCCNC(=N)N)C(=O)N[C@@H]([C@@H](C)CC)C(=O)O[C@H]1C)[C@@H](C)CC [compound 14] | reduced antibacterial activities |
| CC[C@H](C)[C@H](NC(=O)[C@@H](Cc1ccccc1)NC)C(=O)N[C@@H](CO)C(=O)N[C@H](CCC(N)=O)C(=O)N[C@@H](C(=O)N[C@H](C(=O)N[C@@H](CO)C(=O)N[C@H]1C(=O)N[C@@H](C)C(=O)N[C@@H](CCCN)C(=O)N[C@@H]([C@@H](C)CC)C(=O)O[C@H]1C)[C@@H](C)CC)[C@@H](C)CC [compound 16] | reduced antibacterial activities |
